Experimental data: patent US20050043551A1, “Method of obtaining 2-(2-nitrovinyl)-furan and the use thereof as a coccidiostatic” (priority 2001, published 2005)
Several values for one entry are separate records, joined by “and”; a condition that tells them apart may be missing. Identical values can stand only once.

Key:
[1] = Oral Half Lethal Dose (LD50) in rats; format: in vivo; conditions: several solvents, female and male Sprague Dawley rats
[2] = system: intestinal Coccidias (E. perforans, E. magna, E. media, E. exigua); experiment: Rabbits inoculated with oocysts of intestinal Eimeria (Example 4); format: in vivo; conditions: for Weight gain in % during 7 days: 4 μg/mL in drinking water for 5 days; for Mortality: 4 μg/mL, deaths/3 animals
Description: The 2-(2-nitrovynil)-furan, in a formulation similar to that described in the example 2, was dissolved in rabbits' drinking water and administered daily at libitum for 5 days. Two experiments (I, II), each one with 9 rabbits, were carried out. Each experiment had 3 treatments of 3 animals each one. Among treatments an infected no treated group and a group neither infected nor treated were considered.. In the 1st experiment each rabbit received 61×10^3 those of the 2nd experiment 116×10^3 oocysts of intestinal Coccidias. The present species were E. perforans 38%, E. magna 30%, E. media 22% and E. exigua 10%, with a 97.3% of sporulation. The initial and final weight difference and the deaths of animals after 7 days treatment was used as evaluation criteria.

[3] = format: cell-based
Description: (§1) In vitro mutagenesis studies were carried out using the micronucleus assay with blockade of cytokinesis with and without metabolic activation, as well as the sister chromatide exchange assay with and without metabolic activation. It was are carried out a theoretical study assisted by computer for the prognosis of the mutagenic activity.

[4] = In vitro sister chromatide exchange assay; format: cell-based; conditions: with and without metabolic activation
Description: as §1

[5] = Oral Half Lethal Dose (LD50) in hens; format: in vivo; conditions: several solvents, mature Leghorn hens
E. tenella = experiment: Leghorn egg-laying hens naturally infected with E. tenella (Example 3); format: in vivo; conditions: 4 μg/mL in drinking water twice a day for 5 days, deaths/2000 birds
Excerpt: The 2-(2-nitrovynil)-furan, in a formulation similar to that described in the example 2, was applied, in the drinking water twice a day (8 am and 12 m) for 5 days, to 2000 Leghorn egg-laying hens of 56-84 days of age, infected naturally with E. tenella. Two houses highly infected by caecal coccidiosis with 2000 birds each were there was an average of 119 deaths per house in 5 days were selected. The diagnoses was made by the presence of bloody diarrheas, the observation of typical lesions in the blind intestine and abundant presence of parasite oocysts in the caecal content. Infected birds in a house was left as nontreated control and another no infected as neither infected nor treated control having the same range of age.
To evaluate the effectiveness of the product the approach described in the example 2 was used, except that as weight control. Except that as weight control 10 birds of each pen were randomly selected and weighed at the beginning and the end of the treatment.

Eimeria tenella = experiment: Artificial infection of chicks with Eimeria tenella oocysts (Example 2); format: in vivo; conditions: 1x10^5 E. tenella oocysts oral; for Weight gain in % during 9 days: 9 days treatment; for Mortality: deaths/12 birds
Description: To carried out the assay of the action of the synthesized product, the 2-(2nitrovynil)-furan, it was first dissolved first in an alcoholic solution at 3% and later in water, using several concentrations (2, 4, 8 μg/ml) of the alcohol-water solution, as is shown Table 2.
One day old, male, free of Coccidia, F1 fatten chicks were used. These birds were maintained in an appropriate condition, free of Coccidia until two weeks of age. For feeding, it was used the same food used to fatten chickens but free of anticoccididals.
5 groups of 12 poultry with similar weight were formed which received an inoculation of 1×10^5 oocysts of Eimeria tenella by oral route, using a esophagic canula. The treatment began when chicks had 15 days of age, 24 hours before receiving the inoculation, during a period of 9 days.
To evaluate the effectiveness of the product the gain of weight (% referred to the initial weight) and the death number approaches were used in each tratment.

[6] = system: Coccidia (E. perforans, E. magna, E. media, E. exigua); experiment: Oocyst reduction in feces of treated rabbits in production conditions (Example 5); format: in vivo; conditions: 4 μg/ml in drinking water 5 days, before vs after 7 days
Description: The 2-(2-nitrovynil)-furan, in a formulation similar to that described in the example 2, was dissolved in rabbit's drinking water and administered daily at libitum for 5 days at concentration of 4 μg/ml. It were treated 1 246 newborn, young and adult rabbits of the Chinchilla, New White Zelanda and New Red Zelanda species belonging to 3 rabbit companies. The species of Coccidia present were E. perforans 34%, E. magna 32%, E. media 23% and E. exigua 11%. The amount of oocysts per gram of feces before and after 7 days of the treatment was determined to 20% of all treated animals. The difference between the number of oocysts before and after 7 days of treatment expressed as percentage of oocyst reduction, was taken as efficacy criterium.

[7] = Experiment I, 61 x 10^3 oocysts
[8] = Experiment II, 116 x 10^3 oocysts

O=[N+]([O-])C=Cc1ccco1 [2-(2-nitrovynil)-furan]
Half Lethal Dose (LD50) [1]: 171.91 mg/kg of body mass
Weight gain in % during 7 days [2, 7]: 4%
Mortality [2, 7]: no mortality and 0/3
Weight gain in % during 7 days [2, 8]: 3%
Mortality [2, 8]: no deaths and 0/3
Mutagenic activity, micronucleus assay [3]: did not shown mutagenic activity
Mutagenic activity, sister chromatide exchange assay [4]: did not shown mutagenic activity
Half Lethal Dose (LD50) [5]: 1.02 g/kg of body mass
Mortality in 5 days (E. tenella): remarkable decrease of mortality and 15/2000
Weight gain in % during 9 days (Eimeria tenella; dose 2 μg/mL): 78.79%
Mortality (Eimeria tenella; dose 2 μg/mL): 1/12
Mortality (Eimeria tenella; dose 4 μg/mL): no deaths and 0/12
Weight gain in % during 9 days (Eimeria tenella; dose 8 μg/mL): 63.95%
Mortality (Eimeria tenella; dose 8 μg/mL): 0/12
Reduction in % (oocysts per gram of feces) ([6]; Company 1, rabbits): 90%
Reduction in % (oocysts per gram of feces) ([6]; Company 2, rabbits): 99%
Reduction in % (oocysts per gram of feces) ([6]; Company 3, rabbits): 90%
